The values below come from ChEMBL document CHEMBL3045410, “Synthesis and in vitro antitumor activity of 1-(3-dimethylamino)propyl indolin-2-one derivatives” (Med Chem Res, 2013).

The test system of experiment [1] is A549. Nature of the experiment: Cytotoxicity against Homo sapiens (human) A549 cells assessed as growth inhibition by MTT assay. The class given is functional, cell-based. In general terms: Tetrazolium dyes change colour on reduction, which living cells bring about.
For experiment [2], the system named is MDA-MB-231. Nature of the experiment: Cytotoxicity against Homo sapiens (human) MDA-MB-231 cells assessed as growth inhibition by MTT assay. Type of experiment: functional, cell-based.
The subject of experiment [3] is HUVEC. Nature of the experiment: Cytotoxicity against VEGF-stimulated HUVECs assessed as growth inhibition by MTT assay. The class given is functional, cell-based. Conditions: Homo sapiens.
Experiment [4] has as its system HUVEC. Nature of the experiment: Cytotoxicity against recombinant Homo sapiens (human) basic FGF-stimulated HUVECs assessed as growth inhibition by MTT assay. The class given is functional, cell-based.
The subject of experiment [5] is HUVEC. Nature of the experiment: Cytotoxicity against HUVECs assessed as growth inhibition by MTT assay. The class given is cell-based. As to conditions: Homo sapiens.
In another experiment the test system is IM-9. Nature of the experiment: Cytotoxicity against Homo sapiens (human) IM9 cells assessed as growth inhibition by MTT assay. The class given is functional, cell-based.
Experiment [6] deals with K562. Nature of the experiment: Cytotoxicity against Homo sapiens (human) K562 cells assessed as growth inhibition by MTT assay. Type of experiment: functional, cell-based.
Experiment [7] concerns HL-60. Nature of the experiment: Cytotoxicity against Homo sapiens (human) HL60 cells assessed as growth inhibition by MTT assay. The class given is functional, cell-based.
The test system of experiment [8] is A549. Nature of the experiment: Ratio of LK-B030 IC50 to compound IC50 for Homo sapiens (human) A549 cells. Type of experiment: functional.
Experiment [9] concerns MDA-MB-231. Nature of the experiment: Ratio of LK-B030 IC50 to compound IC50 for Homo sapiens (human) MDA-MB-231 cells. The class given is functional.
Experiment [10] concerns K562. Nature of the experiment: Ratio of sunitinib IC50 to compound IC50 for Homo sapiens (human) K562 cells. Type of experiment: functional.
Experiment [11] has as its system HL-60. Nature of the experiment: Ratio of sunitinib IC50 to compound IC50 for Homo sapiens (human) HL60 cells. Type of experiment: functional.
Experiment [12] deals with A549. Nature of the experiment: Ratio of sunitinib IC50 to compound IC50 for Homo sapiens (human) A549 cells. Type of experiment: functional.
Experiment [13] relates to MDA-MB-231. Nature of the experiment: Ratio of sunitinib IC50 to compound IC50 for Homo sapiens (human) MDA-MB-231 cells. The class given is functional.

Each structure is given as a SMILES string.

`Cc1[nH]c(/C=C2\C(=O)N(CCCN(C)C)c3ccc(Cl)cc32)c(C)c1C(=O)N1CCOCC1`: the IC50 in the experiment with A549 [1] was 8.6 µM; in the experiment on MDA-MB-231 [2] it was 9.69 µM; with HUVEC [3], 4.21 µM; in the experiment on HUVEC [4], 10.7 µM; with HUVEC [5], 14.2 µM; in the experiment on IM-9, 7.65 µM. Besides, the IC50 came out at 5.46 µM in the experiment with K562 [6] and 4.64 µM with HL-60 [7].
Turning to `CN(C)CCCN1C(=O)C(=C(c2ccccc2)c2ccccc2)c2cc(F)ccc21`, the IC50 in the experiment on A549 [1] was 13.4 µM; in the experiment with MDA-MB-231 [2], 6.61 µM; in the experiment on HUVEC [3] it was 8.42 µM; in the experiment on HUVEC [4], 10.9 µM; in the experiment with HUVEC [5], 32.8 µM; with IM-9, 9.38 µM. For the same compound, the results for the IC50 in the experiment on K562 [6] and in the experiment with HL-60 [7] were 6.85 µM and 10.1 µM, respectively.
Regarding `CC/C(=C1/C(=O)N(CCCN(C)C)c2ccc(F)cc21)c1ccc[nH]1`, the IC50 in the experiment on A549 [1] was determined as 16.9 µM; with MDA-MB-231 [2], 10.6 µM; in the experiment on HUVEC [3] it was 9.57 µM; with HUVEC [4], 9.75 µM; in the experiment with HUVEC [5] it was 22.2 µM; in the experiment on IM-9 it was 11 µM. Further, the IC50 was determined as 8.82 µM in the experiment with K562 [6] and 10.3 µM with HL-60 [7].
As for `CN(C)CCCN1C(=O)/C(=C(/c2ccccc2)c2ccc[nH]2)c2cc(F)ccc21`, the IC50 in the experiment on A549 [1] is 11.4 µM; in the experiment on MDA-MB-231 [2], 6.92 µM; in the experiment with HUVEC [3], 9.52 µM; in the experiment on HUVEC [4] it was 8.83 µM; with HUVEC [5], 42.8 µM; with IM-9, 5.64 µM. Besides, the IC50 with K562 [6] was 6.43 µM; in the experiment on HL-60 [7], 7.16 µM.
Consider `CCOC(=O)c1c(C)[nH]c(/C=C2\C(=O)N(CCCN(C)C)c3ccc(F)cc32)c1C`, for which the IC50 worked out at 1.55 µM in the experiment on A549 [1]; 3.86 µM with MDA-MB-231 [2]; 10.1 µM with HUVEC [3]; 1.81 µM with HUVEC [4]; 8.56 µM in the experiment on HUVEC [5]; 3.21 µM in the experiment on IM-9. In addition, the IC50 was found to be 1.54 µM in the experiment with K562 [6] and 1.36 µM in the experiment on HL-60 [7].
For `C/C(=C1/C(=O)N(CCCN(C)C)c2ccc(F)cc21)c1ccc[nH]1`, the IC50 in the experiment on A549 [1] was found to be 8.27 µM; in the experiment with MDA-MB-231 [2], 5.92 µM; in the experiment on HUVEC [3], 9.71 µM; in the experiment with HUVEC [4] it was 8.83 µM; with HUVEC [5] it was 13.9 µM; in the experiment on IM-9, 6.68 µM. The IC50 turned out to be 6.41 µM in the experiment on K562 [6] and 7.99 µM in the experiment on HL-60 [7].
For the compound `Cc1[nH]c(/C=C2\C(=O)N(CCCN(C)C)c3ccc(F)cc32)c(C)c1C(=O)N1CCOCC1`, the IC50 in the experiment with A549 [1] worked out at 21.7 µM; in the experiment on MDA-MB-231 [2] it was 14.7 µM; in the experiment with HUVEC [3] it was 9.11 µM; with HUVEC [4] it was 22 µM; in the experiment with HUVEC [5], 29.4 µM; in the experiment on IM-9, 61.5 µM. The values for the IC50 with K562 [6] and in the experiment on HL-60 [7] were 57 µM and 13.2 µM, respectively.
In the case of `CCN(CC)CCNC(=O)c1c(C)[nH]c(/C=C2\C(=O)Nc3ccc(F)cc32)c1C` [SUNITINIB], in the experiment with HUVEC [5], the IC50 was found to be 3.9 µM.
Turning to `CCOC(=O)c1c(C)[nH]c(/C=C2\C(=O)N(CCCN(C)C)c3ccc(Cl)cc32)c1C.Cl`, the IC50 is 1.1 µM with A549 [1]; 1.47 µM in the experiment on MDA-MB-231 [2]; 9.66 µM with HUVEC [3]; 10.2 µM in the experiment with HUVEC [4]; 22 µM in the experiment on HUVEC [5]; 2.95 µM with IM-9. Further, the IC50 in the experiment with K562 [6] came out at 1.36 µM; in the experiment with HL-60 [7], 1.17 µM. Besides, the “Ratio IC50” value is given as 1.6 in the experiment with A549 [8]; 1.6 with MDA-MB-231 [9]; 1.8 in the experiment with K562 [10]; 1.8 in the experiment on HL-60 [11]; 1.8 in the experiment with A549 [12]; 1.8 in the experiment with MDA-MB-231 [13].
`CCN(CC)CCNC(=O)c1c(C)[nH]c(/C=C2\C(=O)N(CCCN(C)C)c3ccc(Cl)cc32)c1C`: the IC50 in the experiment with HUVEC [5] worked out at 5.57 µM.

By IC50 is commonly meant the midpoint of a concentration-inhibition curve.
